Measured values published in patent US8846698B2, “Pyrrolo[2,3-d]pyrimidine tropomysin-related kinase inhibitors” (Pfizer Limited, priority 2011, dated 2014).

Molecular target: TRKA (Homo sapiens (Human), UniProt P04629)
Assay: Isolated TRK enzyme assay (HTRF KinEASE-TK), TRKA
Format: biochemical
Conditions: read-out: Trka enzyme (IC50)

TRKA, sequence (P04629 441-796): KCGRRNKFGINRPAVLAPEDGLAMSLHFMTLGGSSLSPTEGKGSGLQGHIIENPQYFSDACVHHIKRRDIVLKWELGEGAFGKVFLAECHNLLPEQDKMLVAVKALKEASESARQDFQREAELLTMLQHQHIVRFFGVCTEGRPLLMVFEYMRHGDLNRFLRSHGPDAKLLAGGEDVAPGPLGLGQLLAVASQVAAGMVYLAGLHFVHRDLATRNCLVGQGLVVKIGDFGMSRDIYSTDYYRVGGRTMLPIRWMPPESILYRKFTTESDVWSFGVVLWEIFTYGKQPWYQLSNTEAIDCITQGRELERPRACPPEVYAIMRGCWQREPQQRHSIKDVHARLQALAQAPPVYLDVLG

IC50 [nM]	Compound
284	Cc1ccnn1CC(=O)Nc1cncc(C(=O)c2cn(C(C)C)c3ncncc23)c1 [Example 130, N-{5-[(7-isopropyl-7H-pyrrolo[2,3-d]pyrimidin-5-yl)carbonyl]pyridin-3-yl}-2-(5-methyl-1H-pyrazol-1-yl)acetamide]
831	Cc1cccc2ncn(CC(=O)Nc3cncc(C(=O)c4cn(C(C)C)c5ncncc45)c3)c12 [Example 131, N-{5-[(7-isopropyl-7H-pyrrolo[2,3-d]pyrimidin-5-yl)carbonyl]pyridin-3-yl}-2-(7-methyl-1H-benzimidazol-1-yl)acetamide]
334	CC(C)n1cc(C(=O)c2cncc(NC(=O)Cc3cn(C)c4ccccc34)c2)c2cncnc21 [Example 136, N-{5-[(7-isopropyl-7H-pyrrolo[2,3-d]pyrimidin-5-yl)carbonyl]pyridin-3-yl}-2-(1-methyl-1H-indol-3-yl)acetamide]
496	CC(C)n1cc(C(=O)c2cncc(NC(=O)Cc3cc(-c4ccccc4)c[nH]3)c2)c2cncnc21 [Example 137, N-{5-[(7-isopropyl-7H-pyrrolo[2,3-d]pyrimidin-5-yl)carbonyl]pyridin-3-yl}-2-(4-phenyl-1H-pyrrol-2-yl)acetamide]
219	CC(C)n1cc(C(=O)c2cncc(NC(=O)Cc3ccn(-c4ccccc4)c3)c2)c2cncnc21 [Example 140, N-{5-[(7-isopropyl-7H-pyrrolo[2,3-d]pyrimidin-5-yl)carbonyl]pyridin-3-yl}-2-(1-phenyl-1H-pyrrol-3-yl)acetamide]
59.5	Cc1ccc2[nH]cc(CC(=O)Nc3cncc(C(=O)c4cn(C(C)C)c5ncncc45)c3)c2c1 [Example 141, N-{5-[(7-isopropyl-7H-pyrrolo[2,3-d]pyrimidin-5-yl)carbonyl]pyridin-3-yl}-2-(5-methyl-1H-indol-3-yl)acetamide]
71.5	CC(C)n1cc(C(=O)c2cncc(NC(=O)Cc3n[nH]c4ccccc34)c2)c2cncnc21 [Example 144, 2-(1H-indazol-3-yl)-N-{5-[(7-isopropyl-7H-pyrrolo[2,3-d]pyrimidin-5-yl)carbonyl]pyridin-3-yl}acetamide]
37.4	COc1cc(F)cc2ccn(CC(=O)Nc3cncc(C(=O)c4cn(C(C)C)c5ncncc45)c3)c12 [Example 145, 2-(5-fluoro-7-methoxy-1H-indol-1-yl)-N-{5-[(7-isopropyl-7H-pyrrolo[2,3-d]pyrimidin-5-yl)carbonyl]pyridin-3-yl}acetamide]
573	CC(C)n1cc(C(=O)c2cncc(NC(=O)Cc3cn(Cc4ccccc4)nn3)c2)c2cncnc21 [Example 146, 2-(1-benzyl-1H-1,2,3-triazol-4-yl)-N-{5-[(7-isopropyl-7H-pyrrolo[2,3-d]pyrimidin-5-yl)carbonyl]pyridin-3-yl}acetamide]
93.4	CC(C)n1cc(C(=O)c2cncc(NC(=O)Cc3c[nH]c4c(Cl)cccc34)c2)c2cncnc21 [Example 148, 2-(7-chloro-1H-indol-3-yl)-N-{5-[(7-isopropyl-7H-pyrrolo[2,3-d]pyrimidin-5-yl)carbonyl]pyridin-3-yl}acetamide]
51	CC(C)n1cc(C(=O)c2cncc(NC(=O)Cc3cncc(Br)c3)c2)c2cncnc21 [Example 150, 2-(5-bromopyridin-3-yl)-N-{5-[(7-isopropyl-7H-pyrrolo[2,3-d]pyrimidin-5-yl)carbonyl]pyridin-3-yl}acetamide]
232	CC(C)n1cc(C(=O)c2cncc(NC(=O)Cc3ccccn3)c2)c2cncnc21 [Example 151, N-{5-[(7-isopropyl-7H-pyrrolo[2,3-d]pyrimidin-5-yl)carbonyl]pyridin-3-yl}-2-pyridin-2-ylacetamide]
94.1	Cc1ccc(CC(=O)Nc2cncc(C(=O)c3cn(C(C)C)c4ncncc34)c2)cn1 [Example 154, N-{5-[(7-isopropyl-7H-pyrrolo[2,3-d]pyrimidin-5-yl)carbonyl]pyridin-3-yl}-2-(6-methylpyridin-3-yl)acetamide]
174	CC(C)n1cc(C(=O)c2cncc(NC(=O)Cc3ccc4nnnn4n3)c2)c2cncnc21 [Example 157, N-{5-[(7-isopropyl-7H-pyrrolo[2,3-d]pyrimidin-5-yl)carbonyl]pyridin-3-yl}-2-tetrazolo[1,5-b]pyridazin-6-ylacetamide]

The remaining lines, values behind:

Compound	IC50 [nM]
Cc1[nH]c2ccc(F)cc2c1CC(=O)Nc1cncc(C(=O)c2cn(C(C)C)c3ncncc23)c1 [Example 125, 2-(5-fluoro-2-methyl-1H-indol-3-yl)-N-{5-[(7-isopropyl-7H-pyrrolo[2,3-d]pyrimidin-5-yl)carbonyl]pyridin-3-yl}acetamide]	148
CC(C)n1cc(C(=O)c2cncc(NC(=O)Cc3cn4cc(Cl)ccc4n3)c2)c2cncnc21 [Example 126, 2-(6-chloroimidazo[1,2-a]pyridin-2-yl)-N-{5-[(7-isopropyl-7H-pyrrolo[2,3-d]pyrimidin-5-yl)carbonyl]pyridin-3-yl}acetamide]	95.7
Cc1nc2ccccc2n1CC(=O)Nc1cncc(C(=O)c2cn(C(C)C)c3ncncc23)c1 [Example 127, N-{5-[(7-isopropyl-7H-pyrrolo[2,3-d]pyrimidin-5-yl)carbonyl]pyridin-3-yl}-2-(2-methyl-1H-benzimidazol-1-yl)acetamide]	1330
CC(C)n1cc(C(=O)c2cncc(NC(=O)Cc3cn4ccccc4n3)c2)c2cncnc21 [Example 128, 2-imidazo[1,2-a]pyridin-2-yl-N-{5-[(7-isopropyl-7H-pyrrolo[2,3-d]pyrimidin-5-yl)carbonyl]pyridin-3-yl}acetamide]	206
COc1ccc2c(ccn2CC(=O)Nc2cncc(C(=O)c3cn(C(C)C)c4ncncc34)c2)n1 [Example 129, N-{5-[(7-isopropyl-7H-pyrrolo[2,3-d]pyrimidin-5-yl)carbonyl]pyridin-3-yl}-2-(5-methoxy-1H-pyrrolo[3,2-b]pyridin-1-yl)acetamide]	3860
CC(C)n1cc(C(=O)c2cncc(NC(=O)Cc3c[nH]c4ccccc34)c2)c2cncnc21 [Example 132, 2-(1H-indol-3-yl)-N-{5-[(7-isopropyl-7H-pyrrolo[2,3-d]pyrimidin-5-yl)carbonyl]pyridin-3-yl}acetamide]	131
CC(C)n1cc(C(=O)c2cncc(NC(=O)Cn3cnc4ccccc43)c2)c2cncnc21 [Example 133, 2-(1H-benzimidazol-1-yl)-N-{5-[(7-isopropyl-7H-pyrrolo[2,3-d]pyrimidin-5-yl)carbonyl]pyridin-3-yl}acetamide]	681
Cc1cc(CC(=O)Nc2cncc(C(=O)c3cn(C(C)C)c4ncncc34)c2)[nH]n1 [Example 134, N-{5-[(7-isopropyl-7H-pyrrolo[2,3-d]pyrimidin-5-yl)carbonyl]pyridin-3-yl}-2-(3-methyl-1H-pyrazol-5-yl)acetamide]	330
CC(C)n1cc(C(=O)c2cncc(NC(=O)Cn3nnc4ccccc43)c2)c2cncnc21 [Example 135, 2-(1H-benzotriazol-1-yl)-N-{5-[(7-isopropyl-7H-pyrrolo[2,3-d]pyrimidin-5-yl)carbonyl]pyridin-3-yl}acetamide]	312
CCc1nc2cccnc2n1CC(=O)Nc1cncc(C(=O)c2cn(C(C)C)c3ncncc23)c1 [Example 138, 2-(2-ethyl-3H-imidazo[4,5-b]pyridin-3-yl)-N-{5-[(7-isopropyl-7H-pyrrolo[2,3-d]pyrimidin-5-yl)carbonyl]pyridin-3-yl}acetamide]	8310
CC(C)n1cc(C(=O)c2cncc(NC(=O)Cc3c[nH]c4ccc(Cl)cc34)c2)c2cncnc21 [Example 139, 2-(5-chloro-1H-indol-3-yl)-N-{5-[(7-isopropyl-7H-pyrrolo[2,3-d]pyrimidin-5-yl)carbonyl]pyridin-3-yl}acetamide]	65.7
CCc1nc2ccccc2n1CC(=O)Nc1cncc(C(=O)c2cn(C(C)C)c3ncncc23)c1 [Example 142, 2-(2-ethyl-1H-benzimidazol-1-yl)-N-{5-[(7-isopropyl-7H-pyrrolo[2,3-d]pyrimidin-5-yl)carbonyl]pyridin-3-yl}acetamide]	1380
CC(C)n1cc(C(=O)c2cncc(NC(=O)Cc3cn4cccnc4n3)c2)c2cncnc21 [Example 143, 2-imidazo[1,2-a]pyrimidin-2-yl-N-{5-[(7-isopropyl-7H-pyrrolo[2,3-d]pyrimidin-5-yl)carbonyl]pyridin-3-yl}acetamide]	4730
CC(C)n1cc(C(=O)c2cncc(NC(=O)Cc3nn(C)c4cc(Cl)ccc34)c2)c2cncnc21 [Example 147, 2-(6-chloro-1-methyl-1H-indazol-3-yl)-N-{5-[(7-isopropyl-7H-pyrrolo[2,3-d]pyrimidin-5-yl)carbonyl]pyridin-3-yl}acetamide]	76.4
Cc1c(-c2ccccc2)cnn1CC(=O)Nc1cncc(C(=O)c2cn(C(C)C)c3ncncc23)c1 [Example 149, N-{5-[(7-isopropyl-7H-pyrrolo[2,3-d]pyrimidin-5-yl)carbonyl]pyridin-3-yl}-2-(5-methyl-4-phenyl-1H-pyrazol-1-yl)acetamide]	3570
COc1ccc(CC(=O)Nc2cncc(C(=O)c3cn(C(C)C)c4ncncc34)c2)cn1 [Example 152, N-{5-[(7-isopropyl-7H-pyrrolo[2,3-d]pyrimidin-5-yl)carbonyl]pyridin-3-yl}-2-(6-methoxypyridin-3-yl)acetamide]	82.5
Cc1ccc2[nH]c(C)c(CC(=O)Nc3cncc(C(=O)c4cn(C(C)C)c5ncncc45)c3)c2c1 [Example 153, 2-(2,5-dimethyl-1H-indol-3-yl)-N-{5-[(7-isopropyl-7H-pyrrolo[2,3-d]pyrimidin-5-yl)carbonyl]pyridin-3-yl}acetamide]	71.5
Cc1ccc2ccc(CC(=O)Nc3cncc(C(=O)c4cn(C(C)C)c5ncncc45)c3)cc2n1 [Example 155, N-{5-[(7-isopropyl-7H-pyrrolo[2,3-d]pyrimidin-5-yl)carbonyl]pyridin-3-yl}-2-(2-methylquinolin-7-yl)acetamide]	49.1
COc1ccc2[nH]c(C)c(CC(=O)Nc3cncc(C(=O)c4cn(C(C)C)c5ncncc45)c3)c2c1 [Example 156, N-{5-[(7-isopropyl-7H-pyrrolo[2,3-d]pyrimidin-5-yl)carbonyl]pyridin-3-yl}-2-(5-methoxy-2-methyl-1H-indol-3-yl)acetamide]	133
